From ChEMBL document CHEMBL3045235, “Synthesis of aspirin eugenol ester and its biological activity” (Med Chem Res, 2012)

Assays:
[1] = Toxicity in ig dosed Mus musculus (mouse); assay type: organism-based; conditions: in vivo, po
Mus musculus [2] = test: Anti-inflammatory activity against xylene-induced ear swelling Mus musculus (mouse) model as suppression of ear swelling at 1.11 mmol/kg, ig measured 1 hr after xylene challenge; assay type: functional; conditions: po
Mus musculus [3] = test: Anti-inflammatory activity against xylene-induced ear swelling Mus musculus (mouse) model as suppression of ear swelling at 0.56 mmol/kg, ig measured 1 hr after xylene challenge; assay type: functional; conditions: po
Mus musculus [4] = test: Toxicity in ig dosed Mus musculus (mouse) assessed as effect on kidney after 7 days; assay type: organism-based; conditions: in vivo, po, 168 h
Rattus norvegicus [5] = test: Antipyretic activity against yeast-induced hyperthermia in Rattus norvegicus (rat) assessed as change in body temperature at 1.5 mmol/kg after 2 hr; assay type: functional, organism-based
Mus musculus [6] = test: Toxicity in ig dosed Mus musculus (mouse) assessed as effect on spleen after 7 days; assay type: organism-based; conditions: in vivo, po, 168 h
Mus musculus [7] = test: Toxicity in ig dosed Mus musculus (mouse) assessed as effect on kidney measured post autopsy; assay type: organism-based; conditions: in vivo, po
Mus musculus [8] = test: Analgesic activity in Mus musculus (mouse) assessed as pain threshold at 0.56 mmol/kg, ig after 60 min by hot plate test (reference value: 21.28 +/- 3 sec); assay type: functional
Rattus norvegicus [9] = test: Antipyretic activity against yeast-induced hyperthermia in Rattus norvegicus (rat) assessed as change in body temperature at 2 mmol/kg after 6 hr; assay type: functional, organism-based
Mus musculus [10] = test: Analgesic activity in Mus musculus (mouse) assessed as pain threshold at 1.1 mmol/kg, ig after 180 min by hot plate test (reference value: 17.67 +/- 5.78 sec); assay type: functional
Mus musculus [11] = test: Toxicity in ig dosed Mus musculus (mouse) assessed as effect on spleen measured post autopsy; assay type: organism-based; conditions: in vivo, po
Mus musculus [12] = test: Analgesic activity in Mus musculus (mouse) assessed as pain threshold at 0.56 mmol/kg, ig after 180 min by hot plate test (reference value: 17.67 +/- 5.78 sec); assay type: functional
Mus musculus [13] = test: Analgesic activity in Mus musculus (mouse) assessed as pain threshold at 1.1 mmol/kg, ig after 30 min by hot plate test (reference value: 24.88 +/- 5.28 sec); assay type: functional
Mus musculus [14] = test: Toxicity in ig dosed Mus musculus (mouse) assessed as effect on liver measured post autopsy; assay type: organism-based; conditions: in vivo, po
Mus musculus [15] = test: Analgesic activity in Mus musculus (mouse) assessed as pain threshold at 1.1 mmol/kg, ig after 120 min by hot plate test (reference value: 19.06 +/- 4.55 sec); assay type: functional
Mus musculus [16] = test: Analgesic activity in Mus musculus (mouse) assessed as pain threshold at 1.1 mmol/kg, ig after 60 min by hot plate test (reference value: 21.28 +/- 3 sec); assay type: functional
Rattus norvegicus [17] = test: Antipyretic activity against yeast-induced hyperthermia in Rattus norvegicus (rat) assessed as change in body temperature at 2 mmol/kg after 4 hr; assay type: functional, organism-based
Mus musculus [18] = test: Toxicity in ig dosed Mus musculus (mouse) assessed as effect on heart after 7 days; assay type: organism-based; conditions: in vivo, po, 168 h
Rattus norvegicus [19] = test: Antipyretic activity against yeast-induced hyperthermia in Rattus norvegicus (rat) assessed as change in body temperature at 1.5 mmol/kg after 4 hr; assay type: functional, organism-based
Rattus norvegicus [20] = test: Antipyretic activity against yeast-induced hyperthermia in Rattus norvegicus (rat) assessed as change in body temperature at 1 mmol/kg after 4 hr; assay type: functional, organism-based
Rattus norvegicus [21] = test: Antipyretic activity against yeast-induced hyperthermia in Rattus norvegicus (rat) assessed as change in body temperature at 1.5 mmol/kg after 6 hr; assay type: functional, organism-based
Mus musculus [22] = test: Analgesic activity in Mus musculus (mouse) assessed as pain threshold at 0.56 mmol/kg, ig after 120 min by hot plate test (reference value: 19.06 +/- 4.55 sec); assay type: functional
Mus musculus [23] = test: Toxicity in ig dosed Mus musculus (mouse) assessed as mortality within 24 hr; assay type: organism-based; conditions: in vivo, po
Rattus norvegicus [24] = test: Antipyretic activity against yeast-induced hyperthermia in Rattus norvegicus (rat) assessed as change in body temperature at 2 mmol/kg after 2 hr; assay type: functional, organism-based
Rattus norvegicus [25] = test: Antipyretic activity against yeast-induced hyperthermia in Rattus norvegicus (rat) assessed as change in body temperature at 1 mmol/kg after 6 hr; assay type: functional, organism-based
Rattus norvegicus [26] = test: Antipyretic activity against yeast-induced hyperthermia in Rattus norvegicus (rat) assessed as change in body temperature at 1 mmol/kg after 2 hr; assay type: functional, organism-based
Mus musculus [27] = test: Toxicity in ig dosed Mus musculus (mouse) assessed as effect on heart measured post autopsy; assay type: organism-based; conditions: in vivo, po
Mus musculus [28] = test: Analgesic activity in Mus musculus (mouse) assessed as pain threshold at 0.56 mmol/kg, ig after 30 min by hot plate test (reference value: 24.88 +/- 5.28 sec); assay type: functional
Mus musculus [29] = test: Toxicity in ig dosed Mus musculus (mouse) assessed as effect on liver after 7 days; assay type: organism-based; conditions: in vivo, po, 168 h

SMILES | LD50 [1] | inhibition in vivo at 1110 µmol/kg (Mus musculus [2]) | deltaT (Rattus norvegicus [5]) | Time (Mus musculus [10]) | Time (Mus musculus [13]) | Time (Mus musculus [15]) | Time (Mus musculus [16]) | deltaT (Rattus norvegicus [19]) | deltaT (Rattus norvegicus [21]) | other results
C=CCc1ccc(OC(=O)c2ccccc2OC(C)=O)c(OC)c1 [ASPIRIN EUGENOL ESTER] | 10900 mg/kg | 45.9% | -1.14 °C | 29.69 s | 29.5 s | 28.74 s | 28.8 s | -1.4 °C | -1.45 °C | inhibition in vivo at 560 µmol/kg (Mus musculus [3]): 44.8%; Activity (Mus musculus [4]): Non-toxic; Activity (Mus musculus [6]): Non-toxic; Activity (Mus musculus [7]): Non-toxic; Time (Mus musculus [8]): 28.81 s; deltaT (Rattus norvegicus [9]): -2.49 °C; Activity (Mus musculus [11]): Non-toxic; Time (Mus musculus [12]): 29.13 s; Activity (Mus musculus [14]): Non-toxic; deltaT (Rattus norvegicus [17]): -2.46 °C; Activity (Mus musculus [18]): Non-toxic; deltaT (Rattus norvegicus [20]): -1.29 °C; Time (Mus musculus [22]): 26.85 s; Activity (Mus musculus [23]): Toxic; deltaT (Rattus norvegicus [24]): -2.09 °C; deltaT (Rattus norvegicus [25]): -1.32 °C; deltaT (Rattus norvegicus [26]): -1.2 °C; Activity (Mus musculus [27]): Non-toxic; Time (Mus musculus [28]): 24.45 s; Activity (Mus musculus [29]): Non-toxic
CC(=O)Oc1ccccc1C(=O)O [ASPIRIN] | 250 mg/kg | 45.2% | -2.19 °C | – | – | – | – | -1.8 °C | -1.78 °C | –
C=CCc1ccc(O)c(OC)c1 [EUGENOL] | 3000 mg/kg | 32.9% | -0.94 °C | 25.5 s | 30.76 s | 24.86 s | 28.01 s | -1.11 °C | -1.21 °C | –
